# From article PMC9692523, “Exposure to (Poly)phenol Metabolites after a Fruit and Vegetable Supplement Intake: A Double-Blind, Cross-Over, Randomized Trial” (Nutrients, 2022)
# Columns and labels:
# [1] = Plasma pharmacokinetics of phenolic metabolites after one 450 mg capsule of the supplement (UHPLC-ESI-MS/MS); assay type: in vivo, human; settings: for Cmax / Tmax / Tpres (time of presence of metabolites in circulation): n = 10, mean ± SEM; for Tpres (time of presence of metabolites in circulation): interval between first and last appearance; for AUC0-24: supplemented volunteers (n = 10), 450 mg capsule, mean ± SEM
# Experimental: (§1) This study was designed as a 3-week randomized, double-blind, cross-over clinical trial. Eligible participants were randomized using simple block randomization of 1:1. Once enrolled, subjects received either one 450 mg capsule of the test supplement or one 450 mg capsule of placebo on the first day of the study (Phase I: D1). After three days of sampling, volunteers started a wash-out period of 1 week and were then enrolled for the second test Phase with ingestion of the opposite supplement (Phase II: D1) (Figure 1). The placebo product was 100% maltodextrin, which was (poly)phenol-free.
# On the day of the test (D1), volunteers visited the Research Center after an overnight fast. Blood was collected at T0 to determine baseline levels of plasma phenolic metabolites. Then, volunteers were invited to take the 450 mg capsule of the supplement or the placebo with 250 mL of still water (Figure 2). Additional blood samples were then collected at 1 h (D1, T1), 2 h (D1, T2), 3 h (D1, T3), 4 h (D1, T4), 5 h (D1, T5), 6 h (D1, T6), 8 h (D1, T8), 10 h (D1, T10) and 24 h (D2, T24) after capsule intake. Blood was taken from the basilica vein and centrifuged at 3000 rpm for 10 min at 4 °C. Plasma was immediately extracted and frozen at −80 °C for further analysis.
# Plasma samples were then extracted using a solid phase extraction (SPE) method, as previously reported by Castello and colleagues. Briefly, 350 µL of plasma samples was diluted (1:1) with phosphoric acid 4% (v/v). After plate activation, 600 µL of the diluted plasma samples was loaded on a 96 well µ-SPE HLB (Oasis® HLB µElution Plate 30 µm, Waters, Milford, Massachusetts, MA, USA). Samples were washed with 200 µL of water and 200 µL of 0.2% (v/v) acetic acid. Finally, samples were eluted with 60 µL of methanol for UHPLC-ESI-MS/MS analysis.
# (§2) Plasma and urine samples were analyzed by a UHPLC DIONEX Ultimate 3000 equipped with a triple quadrupole TSQ Vantage (Thermo Fisher Scientific Inc) fitted with a heated ESI (H-ESI) (Thermo Fisher Scientific Inc) probe, as previously reported. Separations were carried out by means of a Kinetex EVO C18 (100 × 2.1 mm) column, 2.6 µm particle size (Phenomenex, Torrance, CA, USA), installed with a pre-column (Phenomenex). Mobile phase A was 0.2% formic acid in water, and mobile phase B was acetonitrile containing 0.2% formic acid. The gradient started with 5% B, and isocratic conditions were maintained for 0.5 min, reaching 95% B after 6.5 min, followed by 1 min at 95%. The starting gradient was then immediately re-established and maintained for 5 min to re-equilibrate the column. The flow rate was 0.4 mL/min, the injection volume was 5 µL and the column temperature was set at 40 °C.
# (§3) The applied MS method consisted of the selective determination of each target precursor ion by the acquisition of characteristic product ion in selective reaction monitoring (SRM) mode (Supplemental Table S2). For all the analyses, the spray voltage was set at 3 kV, the vaporizer temperature at 300 °C and the capillary temperature operated at 270 °C. The sheath gas flow was 50 units, and auxiliary gas pressure was set to 10 units. Ultra-high purity argon gas was used for collision-induced dissociation (CID). The S-lens values were defined for each compound based on infusion parameter optimization. Conversely, for those compounds not available for infusion, the S-lens values were set using the values obtained for the chemically closest available standards. Quantification was performed with calibration curves of standards when available or using the most structurally similar compound. Data processing was performed using Xcalibur software (Thermo Scientific Inc., San Jose, CA, USA).
# All data were expressed as mean values ± standard deviation (SD) and mean values ± standard error to the mean (SEM) for metabolites in blood and urine samples. […]
# [2] = Urinary excretion of phenolic metabolites over 48 h after one 450 mg capsule of the supplement (UHPLC-ESI-MS/MS); assay type: in vivo, human; settings: urine, n = 10, mean ± SEM; for Urinary excretion 0 (h): baseline (day before)
# Experimental: as §1
# Urine samples were collected the day before (baseline) and during the 48 h period following the supplementation (T0-T3, T3-T6, T6-T10, T10-T14, T14-T24, T24-T32 and T32-T48) (Figure 2). Urine volumes at each collection period were registered, and samples were aliquoted and stored at −80 °C until further processing.
# Then, urine samples were prepared as previously reported by Brindani and colleagues. Briefly, urine samples were defrosted, vortexed, diluted in 0.1% formic acid in water (1:4, v/v) and centrifuged at 12,000 rpm for 5 min. Finally, urine samples were filtered (0.45 µm nylon filter) prior to UHPLC-ESI-MS/MS analysis.
# as §2, §3
# All data were expressed as mean values ± standard deviation (SD) and mean values ± standard error to the mean (SEM) for metabolites in blood and urine samples. PKSolver add-on program in Microsoft Excel was used to determine pharmacokinetic parameters of blood phenolic metabolites, including time to reach the maximum plasma concentration (Tmax, h), maximum plasma concentration (Cmax, nmol/L), area under the curve (AUC0-24, nmol/L·h), and time of presence of metabolites in circulation (Tpres, h). Tpres was calculated by taking the time interval between the first appearance and the last appearance of the considered metabolite. Coefficient of variation (CV) was evaluated for each metabolite and multivariate principal component analysis (PCA) was applied to explore the inter-individual variation in the urinary metabolites among the participants. […]
Cmax [1] [nM],Tmax [1] [h],Tpres (time of presence of metabolites in circulation) [1] [h],AUC0-24 [1] [µM·h],Urinary excretion 0 (h) [2] [µg],Urinary excretion 0–3 (h) [2] [µg],Urinary excretion 3–6 (h) [2] [µg],Urinary excretion 6–10 (h) [2] [µg],Urinary excretion 10–14 (h) [2] [µg],Urinary excretion 14–24 (h) [2] [µg],Urinary excretion 24–32 (h) [2] [µg],Urinary excretion 32–48 (h) [2] [µg],Urinary excretion Total (0–48 h) [2],Structure (SMILES)
40 ± 16.9,7.00 ± 0.75,12.15 ± 1.84,0.1417 ± 0.05037,344.60 ± 186.50,166.29 ± 126.77,2548.76 ± 1207.06,2277.16 ± 795.52,919.49 ± 314.48,3618.13 ± 985.44,1346.37 ± 481.02,389.78 ± 215.48,"11,610.60 ± 1923.81 µg",O=C1CCC(Cc2ccc(OS(=O)(=O)O)c(O)c2)O1 (stereo not drawn) [compound 21]
9.97 ± 4.31,8.88 ± 2.41,10.57 ± 2.72,0.03046 ± 0.01185,18.25 ± 10.84,4.64 ± 3.47,439.69 ± 219.42,1256.55 ± 516.93,944.18 ± 474.02,3986.28 ± 711.64,1721.60 ± 393.97,586.15 ± 240.93,8957.33 ± 1361.49 µg,O=C1CCC(Cc2cc(O)cc(OS(=O)(=O)O)c2)O1 (stereo not drawn) [compound 16]
6.34 ± 1.66,5.88 ± 0.95,7.13 ± 2.27,0.022 ± 0.00641,15.01 ± 15.01,15.42 ± 15.42,196.48 ± 138.99,169.91 ± 105.95,65.96 ± 36.27,468.44 ± 330.34,81.71 ± 28.26,16.56 ± 16.56,1029.49 ± 394.77 µg,O=C1CCC(Cc2cccc(O[C@@H]3O[C@H](C(=O)O)[C@@H](O)[C@H](O)[C@H]3O)c2)O1 (stereo partly drawn) [compound 17]
